Experimental data published in paper PMC2610488 (Journal of medicinal chemistry, 2008).

How the values were obtained:
HisG = settings: competitive inhibitor for both substrates; cited from earlier work
[1] = target: M. tuberculosis HisG (ATP-PRTase) (Mycobacterium tuberculosis, UniProt P9WMN1); format: biochemical; settings: read-out: inhibition of enzyme activity
M. smegmatis = assay: Whole-cell assay, growth inhibition on agar plates; format: cell-based; settings: 12 μg/ml, 4 days
E. coli HisG = settings: E. coli enzyme; cited from earlier work
[2] = tested on: Arabidopsis thaliana HisG; settings: cited from earlier work

Chain of M. tuberculosis HisG (ATP-PRTase) (P9WMN1 whole entry): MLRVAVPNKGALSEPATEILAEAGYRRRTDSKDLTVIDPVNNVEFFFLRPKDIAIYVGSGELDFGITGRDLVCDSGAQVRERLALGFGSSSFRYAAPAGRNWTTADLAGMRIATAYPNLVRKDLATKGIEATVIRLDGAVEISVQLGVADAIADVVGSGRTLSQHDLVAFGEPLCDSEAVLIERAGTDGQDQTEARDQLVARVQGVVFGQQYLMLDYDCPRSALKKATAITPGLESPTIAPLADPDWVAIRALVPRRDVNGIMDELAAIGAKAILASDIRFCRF

Nc1ncnc2c1ncn2[C@@H]1O[C@H](COP(=O)(O)O)[C@@H](O)[C@H]1O [AMP, adenosine monophosphate]
Ki (HisG): 550 µM

O=C(CSc1nnc(-c2ccccc2)c(-c2ccccc2)n1)Cc1nccs1 [Compound 4]
inhibition at 10 µM [1]: > 50%

O=C(CC(NC(=O)c1ccccc1)c1ccccc1)Nc1nc2ccc([N+](=O)[O-])cc2s1 (stereo not shown) [Compound 6]
inhibition at 10 µM [1]: > 50%

COc1ccc(COC(=O)C2=C(C)NC3=C(C(=O)CC(c4cccs4)C3)C2c2cccs2)cc1 (stereo not shown) [Compound 10]
inhibition at 10 µM [1]: > 50%

O=[N+]([O-])c1ccc(Nc2cc(Nc3cccc(O)c3)c3nonc3c2[N+](=O)[O-])c(O)c1 [Compound 18]
growth inhibition (M. smegmatis): significant growth inhibition

O=c1oc2ccccc2c(O)c1Cc1c(O)c2ccccc2oc1=O [dicoumarol]
Ki (E. coli HisG): 60 µM

di-(amino-naphthyl)-disulfide
IC50 [2]: 0.05 µM
